Measured values from patent US20230133672A1, “FUSION POLYPEPTIDE COMPRISING GDF15 AND POLYPEPTIDE REGION CAPABLE OF O-GLYCOSYLATION” (LG CHEM, LTD., priority 2019, published 2023).

Key:
[1] = Single administration: body weight change in DIO mice; format: in vivo, Mouse, C57BL/6J-DIO; details: single s.c. injection, mean
Procedure: The pharmacological effect of the fusion polypeptides produced and purified in Example 1 above was tested in mice (C57BL/6J, 6-week-old, male, 100 mice; Raonbio).
In the present example, DI0 mouse model (Mouse, C57BL/6J-DIO, male, 100 mice, 14-week-old (obesity feed feeding for 8 weeks)) in which obesity was induced by feeding a high-fat diet into the C57BL/6J mice for 8 weeks was used.
The administration of the test substances HT-ID1-GDF15, HT-ID2-GDF15, and HT-ID3-GDF15 and the control substance Semaglutide (Bachem) was conducted from the next day after group separation, and the administration time was performed at 9 AM every day. Subcutaneous administration was conducted for all the control substance and test substances. For the administration route of the control substance and test substances, subcutaneous administration was selected depending on the clinically scheduled administration route.
For all the control substance and test substances, the amount of the administration solution was set to 5 mL/kg and the administration liquid by individual was calculated on the basis of the recently measured body weight and it was administered by subcutaneous injection once on the start day of the test using a disposable syringe (1 mL). The test substances were administered only once. For comparison, the control group in which the control substance Semaglutide was administered was prepared, and the comparison group in which Semaglutide was administered was administered once a day, and all the administration was progressed from 9 AM.
As for the observation, measurement and test schedule for the test groups, the administration start date was set to Day 0, and 7 days from the administration start date were set to one week of administration.
The body weight of each mouse was measured on the day of the start of administration of the test substances (before administration), and thereafter, the body weight was measured every day (measured up to 9 days), and the amount of the administration solution of the test substances was determined on the basis of the most recently measured body weight.
(§1) All the experimental results obtained in the present example were expressed as mean±standard error and tested using Prism5 (version 5.01). One-way analysis of variance (ANOVA) was performed on all data, and when significance was observed, Dunnett's test was performed to find out the test groups with a significant difference from the control group (significance level: two-sided 5% and 1%, 0.1%).

[2] = Repeated administration: body weight change in DIO mice; format: in vivo, Mouse, C57BL/6J-DIO
Procedure: The body weight of each mouse was measured on the day of the start of administration of the test substances (before administration), and thereafter, the body weight was measured every day ([…]), and the amount of the administration solution of the test substances was determined on the basis of the most recently measured body weight.
as §1
Except for the administration dose, animal number and administration cycle, most of the test processes were the same as in Example 2.1.1 above.
The test substances were administered twice a week (Days 0, 4, 7, 11, 14, 18, 21, 25) for a total of 8 times. For comparison, the control group in which the control substance Semaglutide was administered every day was prepared, and the comparison group in which Semaglutide was administered every day was administered once a day daily, and all the administration was progressed from 9 AM.

Substance: HT-ID3-GDF15: Fusion polypeptide: His-Tag, TEV cleavage site, three IgD hinges, GS linker, GDF15 (SEQ ID NO: 3)
- Body Weight (Group, % of initial) ([1]; Day 0, 10 nmol/kg): 100 % of initial
- Body Weight (Group, % of initial) ([1]; Day 1, 10 nmol/kg): 98 % of initial
- Body Weight (Group, % of initial) ([1]; Day 2, 10 nmol/kg): 97 % of initial
- Body Weight (Group, % of initial) ([1]; Day 3, 10 nmol/kg): 96 % of initial
- Body Weight (Group, % of initial) ([1]; Day 4, 10 nmol/kg): 95 % of initial
- Body Weight (Group, % of initial) ([1]; Day 5, 10 nmol/kg): 94 % of initial
- Body Weight (Group, % of initial) ([1]; Day 6, 10 nmol/kg): 95 % of initial
- Body Weight (Group, % of initial) ([1]; Day 7, 10 nmol/kg): 95 % of initial
- Body Weight (Group, % of initial) ([1]; Day 8, 10 nmol/kg): 95 % of initial
- Body Weight (Group, % of initial) ([1]; Day 9, 10 nmol/kg): 96 % of initial
- Body Weight, Mean ([2]; Day 0, 3 nmol/kg twice a week): 100.0 % of initial
- Body Weight, Mean ([2]; Day 0, 10 nmol/kg twice a week): 100.0 % of initial
- Body Weight, Mean ([2]; Day 0, 30 nmol/kg twice a week): 100.0 % of initial
- Body Weight, Mean ([2]; Day 1, 3 nmol/kg twice a week): 98.2 % of initial
- Body Weight, Mean ([2]; Day 1, 10 nmol/kg twice a week): 98.5 % of initial
- Body Weight, Mean ([2]; Day 1, 30 nmol/kg twice a week): 98.2 % of initial
- Body Weight, Mean ([2]; Day 2, 3 nmol/kg twice a week): 96.9 % of initial
- Body Weight, Mean ([2]; Day 2, 10 nmol/kg twice a week): 97.3 % of initial
- Body Weight, Mean ([2]; Day 2, 30 nmol/kg twice a week): 97.1 % of initial
- Body Weight, Mean ([2]; Day 3, 3 nmol/kg twice a week): 95.6 % of initial
- Body Weight, Mean ([2]; Day 3, 10 nmol/kg twice a week): 95.7 % of initial
- Body Weight, Mean ([2]; Day 3, 30 nmol/kg twice a week): 95.8 % of initial
- Body Weight, Mean ([2]; Day 4, 3 nmol/kg twice a week): 94.4 % of initial
- Body Weight, Mean ([2]; Day 4, 10 nmol/kg twice a week): 94.6 % of initial
- Body Weight, Mean ([2]; Day 4, 30 nmol/kg twice a week): 94.8 % of initial
- Body Weight, Mean ([2]; Day 5, 3 nmol/kg twice a week): 92.8 % of initial
- Body Weight, Mean ([2]; Day 5, 10 nmol/kg twice a week): 92.8 % of initial
- Body Weight, Mean ([2]; Day 5, 30 nmol/kg twice a week): 92.8 % of initial
- Body Weight, Mean ([2]; Day 6, 3 nmol/kg twice a week): 91.9 % of initial
- Body Weight, Mean ([2]; Day 6, 10 nmol/kg twice a week): 91.5 % of initial
- Body Weight, Mean ([2]; Day 6, 30 nmol/kg twice a week): 91.7 % of initial
- Body Weight, Mean ([2]; Day 7, 3 nmol/kg twice a week): 91.0 % of initial
- Body Weight, Mean ([2]; Day 7, 10 nmol/kg twice a week): 90.7 % of initial
- Body Weight, Mean ([2]; Day 7, 30 nmol/kg twice a week): 90.8 % of initial
- Body Weight, Mean ([2]; Day 8, 3 nmol/kg twice a week): 90.0 % of initial
- Body Weight, Mean ([2]; Day 8, 10 nmol/kg twice a week): 89.8 % of initial
- Body Weight, Mean ([2]; Day 8, 30 nmol/kg twice a week): 89.8 % of initial
- Body Weight, Mean ([2]; Day 9, 3 nmol/kg twice a week): 89.6 % of initial
- Body Weight, Mean ([2]; Day 9, 10 nmol/kg twice a week): 89.3 % of initial
- Body Weight, Mean ([2]; Day 9, 30 nmol/kg twice a week): 89.8 % of initial
- Body Weight, Mean ([2]; Day 10, 3 nmol/kg twice a week): 89.1 % of initial
- Body Weight, Mean ([2]; Day 10, 10 nmol/kg twice a week): 88.7 % of initial
- Body Weight, Mean ([2]; Day 10, 30 nmol/kg twice a week): 89.7 % of initial
- Body Weight, Mean ([2]; Day 11, 3 nmol/kg twice a week): 91.5 % of initial
- Body Weight, Mean ([2]; Day 11, 10 nmol/kg twice a week): 90.9 % of initial
- Body Weight, Mean ([2]; Day 11, 30 nmol/kg twice a week): 92.0 % of initial
- Body Weight, Mean ([2]; Day 12, 3 nmol/kg twice a week): 91.5 % of initial
- Body Weight, Mean ([2]; Day 12, 10 nmol/kg twice a week): 89.8 % of initial
- Body Weight, Mean ([2]; Day 12, 30 nmol/kg twice a week): 90.0 % of initial
- Body Weight, Mean ([2]; Day 13, 3 nmol/kg twice a week): 92.3 % of initial
- Body Weight, Mean ([2]; Day 13, 10 nmol/kg twice a week): 90.1 % of initial
- Body Weight, Mean ([2]; Day 13, 30 nmol/kg twice a week): 90.4 % of initial
- Body Weight, Mean ([2]; Day 14, 3 nmol/kg twice a week): 92.5 % of initial
- Body Weight, Mean ([2]; Day 14, 10 nmol/kg twice a week): 91.0 % of initial
- Body Weight, Mean ([2]; Day 14, 30 nmol/kg twice a week): 90.9 % of initial
- Body Weight, Mean ([2]; Day 15, 3 nmol/kg twice a week): 92.6 % of initial
- Body Weight, Mean ([2]; Day 15, 10 nmol/kg twice a week): 90.0 % of initial
- Body Weight, Mean ([2]; Day 15, 30 nmol/kg twice a week): 89.3 % of initial
- Body Weight, Mean ([2]; Day 16, 3 nmol/kg twice a week): 93.3 % of initial
- Body Weight, Mean ([2]; Day 16, 10 nmol/kg twice a week): 91.2 % of initial
- Body Weight, Mean ([2]; Day 16, 30 nmol/kg twice a week): 89.6 % of initial
- Body Weight, Mean ([2]; Day 17, 3 nmol/kg twice a week): 94.0 % of initial
- Body Weight, Mean ([2]; Day 17, 10 nmol/kg twice a week): 91.8 % of initial
- Body Weight, Mean ([2]; Day 17, 30 nmol/kg twice a week): 90.4 % of initial
- Body Weight, Mean ([2]; Day 18, 3 nmol/kg twice a week): 94.4 % of initial
- Body Weight, Mean ([2]; Day 18, 10 nmol/kg twice a week): 92.3 % of initial
- Body Weight, Mean ([2]; Day 18, 30 nmol/kg twice a week): 91.0 % of initial
- Body Weight, Mean ([2]; Day 19, 3 nmol/kg twice a week): 95.0 % of initial
- Body Weight, Mean ([2]; Day 19, 10 nmol/kg twice a week): 91.9 % of initial
- Body Weight, Mean ([2]; Day 19, 30 nmol/kg twice a week): 90.0 % of initial
- Body Weight, Mean ([2]; Day 20, 3 nmol/kg twice a week): 95.2 % of initial
- Body Weight, Mean ([2]; Day 20, 10 nmol/kg twice a week): 91.2 % of initial
- Body Weight, Mean ([2]; Day 20, 30 nmol/kg twice a week): 89.6 % of initial
- Body Weight, Mean ([2]; Day 21, 3 nmol/kg twice a week): 95.8 % of initial
- Body Weight, Mean ([2]; Day 21, 10 nmol/kg twice a week): 92.1 % of initial
- Body Weight, Mean ([2]; Day 21, 30 nmol/kg twice a week): 90.4 % of initial
- Body Weight, Mean ([2]; Day 22, 3 nmol/kg twice a week): 96.4 % of initial
- Body Weight, Mean ([2]; Day 22, 10 nmol/kg twice a week): 92.1 % of initial
- Body Weight, Mean ([2]; Day 22, 30 nmol/kg twice a week): 90.0 % of initial
- Body Weight, Mean ([2]; Day 23, 3 nmol/kg twice a week): 97.1 % of initial
- Body Weight, Mean ([2]; Day 23, 10 nmol/kg twice a week): 92.5 % of initial
- Body Weight, Mean ([2]; Day 23, 30 nmol/kg twice a week): 90.0 % of initial
- Body Weight, Mean ([2]; Day 24, 3 nmol/kg twice a week): 97.4 % of initial
- Body Weight, Mean ([2]; Day 24, 10 nmol/kg twice a week): 93.2 % of initial
- Body Weight, Mean ([2]; Day 24, 30 nmol/kg twice a week): 91.0 % of initial
- Body Weight, Mean ([2]; Day 25, 3 nmol/kg twice a week): 97.6 % of initial
- Body Weight, Mean ([2]; Day 25, 10 nmol/kg twice a week): 93.7 % of initial
- Body Weight, Mean ([2]; Day 25, 30 nmol/kg twice a week): 91.5 % of initial
- Body Weight, Mean ([2]; Day 26, 3 nmol/kg twice a week): 98.5 % of initial
- Body Weight, Mean ([2]; Day 26, 10 nmol/kg twice a week): 94.2 % of initial
- Body Weight, Mean ([2]; Day 26, 30 nmol/kg twice a week): 91.5 % of initial
- Body Weight, Mean ([2]; Day 27, 3 nmol/kg twice a week): 98.0 % of initial
- Body Weight, Mean ([2]; Day 27, 10 nmol/kg twice a week): 94.4 % of initial
- Body Weight, Mean ([2]; Day 27, 30 nmol/kg twice a week): 91.2 % of initial
- Body Weight, Mean ([2]; Day 28, 3 nmol/kg twice a week): 98.6 % of initial
- Body Weight, Mean ([2]; Day 28, 10 nmol/kg twice a week): 94.1 % of initial
- Body Weight, Mean ([2]; Day 28, 30 nmol/kg twice a week): 91.4 % of initial
